Eleven compounds from US11168073B2, “3,3-difluoroallylamines or salts thereof and pharmaceutical compositions comprising the same” (YUHAN CORPORATION, priority 2018, dated 2021) can be followed below.

Common to all, as to assay type: biochemical
The target in assay [1] is T1, recombinant human VAP-1 (Homo sapiens, UniProt Q16853).
T1 construct: purchased R&D systems
T1 sequence (Q16853 1-763): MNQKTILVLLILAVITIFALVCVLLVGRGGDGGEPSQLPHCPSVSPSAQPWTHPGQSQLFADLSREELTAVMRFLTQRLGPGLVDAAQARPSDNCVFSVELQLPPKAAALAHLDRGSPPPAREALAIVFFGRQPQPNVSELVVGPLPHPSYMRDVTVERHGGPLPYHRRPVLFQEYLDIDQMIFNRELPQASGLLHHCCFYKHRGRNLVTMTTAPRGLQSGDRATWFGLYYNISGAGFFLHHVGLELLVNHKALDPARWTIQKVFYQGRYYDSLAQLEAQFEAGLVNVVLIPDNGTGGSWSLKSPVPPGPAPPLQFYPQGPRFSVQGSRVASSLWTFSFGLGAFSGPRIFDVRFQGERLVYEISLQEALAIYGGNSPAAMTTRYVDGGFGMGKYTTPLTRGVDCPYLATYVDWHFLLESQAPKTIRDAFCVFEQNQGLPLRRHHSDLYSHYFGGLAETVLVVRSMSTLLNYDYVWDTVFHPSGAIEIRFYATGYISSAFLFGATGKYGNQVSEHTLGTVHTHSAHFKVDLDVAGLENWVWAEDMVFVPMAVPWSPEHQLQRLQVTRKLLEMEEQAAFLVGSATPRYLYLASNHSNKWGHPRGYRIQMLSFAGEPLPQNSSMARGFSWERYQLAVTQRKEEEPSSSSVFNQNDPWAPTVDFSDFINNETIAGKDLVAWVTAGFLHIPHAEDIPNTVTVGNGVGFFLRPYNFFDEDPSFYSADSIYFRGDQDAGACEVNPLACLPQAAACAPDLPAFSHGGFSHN
The experiment in a line: Activity evaluation on recombinant human VAP-1 (Amplex Red/HRP-coupled hydrogen peroxide assay, benzylamine substrate). The note with it: read-out: Inhibitory Activity (IC50, nM) human VAP-1. The procedure, abridged:
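Hydrogen peroxide from benzylamine (1 mM) oxidation by human recombinant VAP-1 detected via HRP-coupled Amplex Red (200 uM) fluorescence, kinetic over 1–2 h. Enzyme and compound preincubated 30 min at 37 °C, pH 7.4 phosphate; 8-point dose response, signal-rate decrease versus DMSO control fitted to four-parameter logistic for IC50.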

The target in assay [2] is T2, recombinant human MAO-A (monoamine oxidase-A) (Homo sapiens, UniProt P21397).
T2 construct: purchased Sigma-Aldrich
T2 sequence (P21397 1-527): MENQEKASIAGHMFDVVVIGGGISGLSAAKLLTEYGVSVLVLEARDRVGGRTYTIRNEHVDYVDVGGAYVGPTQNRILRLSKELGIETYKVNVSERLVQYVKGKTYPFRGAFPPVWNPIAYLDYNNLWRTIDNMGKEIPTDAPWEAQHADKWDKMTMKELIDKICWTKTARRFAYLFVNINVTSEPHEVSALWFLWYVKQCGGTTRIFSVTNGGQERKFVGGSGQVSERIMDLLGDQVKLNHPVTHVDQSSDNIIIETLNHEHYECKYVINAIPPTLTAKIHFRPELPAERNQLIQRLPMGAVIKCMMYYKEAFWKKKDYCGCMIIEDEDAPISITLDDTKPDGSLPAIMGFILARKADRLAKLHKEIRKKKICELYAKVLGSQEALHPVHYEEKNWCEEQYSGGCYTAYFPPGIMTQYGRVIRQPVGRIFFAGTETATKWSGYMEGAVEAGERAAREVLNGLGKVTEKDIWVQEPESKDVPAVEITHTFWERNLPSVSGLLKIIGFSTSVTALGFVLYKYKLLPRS
The experiment in a line: Activity evaluation on recombinant human MAO-A (Amplex Red/HRP-coupled assay, 0.5 mM tyramine substrate). The note with it: read-out: Inhibitory Activity (IC50, nM) MAO-A. In outline:
(§1)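 Using an HRP-coupled Amplex Red readout (544/590 nm, kinetic over 1–2 h), IC50 values were fitted by 4-parameter logistic model to percent decrease in signal rate against DMSO control. Compounds (1:3 dilutions, 8 points, <1% DMSO) sat 30 min at 37 °C with enzyme in pH 7.4 phosphate buffer before substrate, 200 uM Amplex Red and HRP were added.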

The target in assay [3] is T3, recombinant human MAO-B (monoamine oxidase-B) (Homo sapiens, UniProt P27338).
T3 construct: purchased Sigma-Aldrich
T3 sequence (P27338 1-520): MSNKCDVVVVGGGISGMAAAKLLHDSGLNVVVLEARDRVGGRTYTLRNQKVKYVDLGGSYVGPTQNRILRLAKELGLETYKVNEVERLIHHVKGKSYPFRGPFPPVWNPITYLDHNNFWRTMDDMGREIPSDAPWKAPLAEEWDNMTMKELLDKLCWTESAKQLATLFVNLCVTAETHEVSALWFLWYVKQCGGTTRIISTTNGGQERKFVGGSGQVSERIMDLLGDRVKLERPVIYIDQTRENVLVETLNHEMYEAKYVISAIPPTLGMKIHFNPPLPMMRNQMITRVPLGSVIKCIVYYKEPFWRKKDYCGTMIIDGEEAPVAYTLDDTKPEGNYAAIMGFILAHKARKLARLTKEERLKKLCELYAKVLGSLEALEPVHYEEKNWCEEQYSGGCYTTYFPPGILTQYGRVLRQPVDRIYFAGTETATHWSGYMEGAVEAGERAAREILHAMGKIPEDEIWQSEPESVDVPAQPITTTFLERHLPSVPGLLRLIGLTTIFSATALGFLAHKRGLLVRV
The experiment in a line: Activity evaluation on recombinant human MAO-B (Amplex Red/HRP-coupled assay, 1 mM benzylamine substrate). The note with it: read-out: Inhibitory Activity (IC50, nM) MAO-B. The procedure, abridged:
as §1

The target in assay [4] is T4, recombinant human DAO (diamine oxidase) (Homo sapiens, UniProt P19801).
T4 construct: purchased R&D systems
T4 sequence (P19801 20-751): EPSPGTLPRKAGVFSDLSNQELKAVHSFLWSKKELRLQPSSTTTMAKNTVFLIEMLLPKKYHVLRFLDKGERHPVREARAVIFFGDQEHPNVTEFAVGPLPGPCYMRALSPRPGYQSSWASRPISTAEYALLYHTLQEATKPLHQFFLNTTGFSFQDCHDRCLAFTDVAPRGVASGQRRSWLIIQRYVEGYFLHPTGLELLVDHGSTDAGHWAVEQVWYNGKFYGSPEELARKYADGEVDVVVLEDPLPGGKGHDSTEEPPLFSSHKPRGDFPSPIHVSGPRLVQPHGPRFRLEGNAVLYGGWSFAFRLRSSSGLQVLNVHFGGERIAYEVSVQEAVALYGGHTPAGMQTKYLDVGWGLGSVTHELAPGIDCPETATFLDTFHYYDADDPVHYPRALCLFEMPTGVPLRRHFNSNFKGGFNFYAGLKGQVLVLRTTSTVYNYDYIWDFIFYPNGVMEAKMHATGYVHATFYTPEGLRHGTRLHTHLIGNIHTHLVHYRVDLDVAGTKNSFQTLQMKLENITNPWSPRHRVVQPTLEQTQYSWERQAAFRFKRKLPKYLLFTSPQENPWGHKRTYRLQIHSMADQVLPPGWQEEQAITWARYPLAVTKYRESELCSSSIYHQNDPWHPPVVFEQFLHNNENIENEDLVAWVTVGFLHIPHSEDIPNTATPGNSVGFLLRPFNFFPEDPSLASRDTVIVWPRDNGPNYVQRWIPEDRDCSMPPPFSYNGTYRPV
The experiment in a line: Activity evaluation on recombinant human DAO (Amplex Red/HRP-coupled assay, 1 mM putrescine substrate). To be noted: read-out: Inhibitory Activity (IC50, nM) DAO. The procedure, abridged:
as §1

[5] abbreviates: recombinant human VAP-1, 30 min preincubation at 37° C., 1 mM benzylamine.
[6] abbreviates: recombinant human VAP-1, benzylamine substrate.

Each structure is given as a SMILES string. Structures can show the parent of a compound that is named as a salt. Where two headings read alike, the source gives them in different places. Some results are limits rather than exact numbers.

Regarding `Cc1cc(-n2cnn(CC(CN)=C(F)F)c2=O)cnc1-c1ccc(S(C)(=O)=O)cc1` [Example 76, 2-[2-(aminomethyl)-3,3-difluoro-allyl]-4-[5-methyl-6-(4-methylsulfonylphenyl)-3-pyridyl]-1,2,4-triazol-3-one Trifluoroacetate], the half-maximal inhibitory concentration (IC50) was 1.1 nM in assay [1] (setting [5]), more than 100000 nM in assay [2] (0.5 mM tyramine), 44000 nM in assay [3] (1 mM benzylamine) and 32 nM in assay [4] (1 mM putrescine).
On to `Cc1c(-c2ccc3c(c2)OCO3)cccc1-n1cnn(CC(CN)=C(F)F)c1=O` [Example 257, 2-[2-(aminomethyl)-3,3-difluoro-allyl]-4-[3-(1,3-benzodioxol-5-yl)-2-methyl-phenyl]-1,2,4-triazol-3-one Trifluoroacetate], for which the IC50 is 2.4 nM in assay [1] (setting [6]), more than 100000 nM in assay [2] (0.5 mM tyramine substrate), 101000 nM in assay [3] (1 mM benzylamine substrate) and more than 100000 nM in assay [4] (1 mM putrescine substrate).
As for `Cc1cc(-c2cc(C)c3c(c2)CCC(=O)N3)cnc1-n1cnn(CC(CN)=C(F)F)c1=O` [Example 73, 6-[6-[1-[2-(aminomethyl)-3,3-difluoro-allyl]-5-oxo-1,2,4-triazol-4-yl]-5-methyl-3-pyridyl]-8-methyl-3,4-dihydro-1H-quinolin-2-one Trifluoroacetate], the IC50 in assay [1] (setting [5]) is 0.3 nM; in assay [2] (0.5 mM tyramine) it was more than 100000 nM; in assay [3] (1 mM benzylamine), 7200 nM; in assay [4] (1 mM putrescine), 6100 nM.
For `CN1C(=O)CCc2cc(-c3ccccc3Cn3cnn(CC(CN)=C(F)F)c3=O)ccc21` [Example 284, 6-[2-[[1-[2-(aminomethyl)-3,3-difluoro-allyl]-5-oxo-1,2,4-triazol-4-yl]methyl]phenyl]-1-methyl-3,4-dihydroquinolin-2-one trifluoroacetate], the IC50 in assay [1] (setting [6]) was 148 nM; in assay [2] (0.5 mM tyramine substrate) it was more than 100000 nM; in assay [3] (1 mM benzylamine substrate), more than 100000 nM; in assay [4] (1 mM putrescine substrate), 66400 nM.
Consider `Cc1c(-c2cnn(C(F)F)c2)cccc1-n1cnn(CC(CN)=C(F)F)c1=O` [Example 261, 2-[2-(aminomethyl)-3,3-difluoro-allyl]-4-[3-[1-(difluoromethyl)pyrazol-4-yl]-2-methyl-phenyl]-1,2,4-triazol-3-one Trifluoroacetate], for which the 50% inhibitory concentration (IC50) was 6.5 nM in assay [1] (setting [6]), more than 100000 nM in assay [2] (0.5 mM tyramine substrate), more than 100000 nM in assay [3] (1 mM benzylamine substrate) and more than 100000 nM in assay [4] (1 mM putrescine substrate).
As for `NCC(Cn1ncn(Cc2ccc(Br)s2)c1=O)=C(F)F` [Example 97, 2-[2-(aminomethyl)-3,3-difluoro-allyl]-4-[(5-bromo-2-thienyl)methyl]-1,2,4-triazol-3-one Trifluoroacetate], the IC50 in assay [1] (setting [5]) is 1.3 nM; in assay [2] (0.5 mM tyramine), more than 100000 nM; in assay [3] (1 mM benzylamine), 20000 nM; in assay [4] (1 mM putrescine), more than 10000 nM.
Take `NCC(Cn1ncn(-c2ncc(-c3ccc4c(c3)OCO4)cc2F)c1=O)=C(F)F` [Example 85, 2-[2-(aminomethyl)-3,3-difluoro-allyl]-4-[5-(1,3-benzodioxol-5-yl)-3-fluoro-2-pyridyl]-1,2,4-triazol-3-one Trifluoroacetate]: the 50% inhibitory concentration (IC50) in assay [1] (setting [5]) was 0.2 nM; in assay [2] (0.5 mM tyramine), more than 100000 nM; in assay [3] (1 mM benzylamine), 130 nM; in assay [4] (1 mM putrescine) it was 180 nM.
On the same counts, the results for `NCC(Cn1ncn(Cc2ccc(C#Cc3ccc4c(c3)NCCO4)s2)c1=O)=C(F)F` [Example 164, 2-[2-(aminomethyl)-3,3-difluoro-allyl]-4-[[5-[2-(3,4-dihydro-2H-1,4-benzoxazin-6-yl)ethynyl]-2-thienyl]methyl]-1,2,4-triazol-3-one Ditrifluoroacetate] are 2.5 nM, 4000 nM, 34000 nM and more than 10000 nM.
In the case of `CC(C)n1cc(-c2csc(Cn3cnn(CC(CN)=C(F)F)c3=O)c2)ccc1=O` [Example 187, 5-[5-[[1-[2-(aminomethyl)-3,3-difluoro-allyl]-5-oxo-1,2,4-triazol-4-yl]methyl]-3-thienyl]-1-isopropyl-pyridin-2-one Trifluoroacetate], the IC50 was 1.1 nM in assay [1] (setting [6]), more than 100000 nM in assay [2] (0.5 mM tyramine substrate), more than 100000 nM in assay [3] (1 mM benzylamine substrate) and 8900 nM in assay [4] (1 mM putrescine substrate).
Turning to `CN1C(=O)COc2cc(-c3ccc(Cn4cnn(CC(CN)=C(F)F)c4=O)s3)ccc21` [Example 144, 7-[5-[[1-[2-(aminomethyl)-3,3-difluoro-allyl]-5-oxo-1,2,4-triazol-4-yl]methyl]-2-thienyl]-4-methyl-1,4-benzoxazin-3-one Trifluoroacetate], the IC50 in assay [1] (setting [5]) is 0.7 nM; in assay [2] (0.5 mM tyramine), more than 100000 nM; in assay [3] (1 mM benzylamine), more than 100000 nM; in assay [4] (1 mM putrescine), more than 10000 nM.
On to `Cc1cc(C#Cc2ccc3c(n2)OCCN3)cnc1-n1cnn(CC(CN)=C(F)F)c1=O` [Example 246, 2-[2-(aminomethyl)-3,3-difluoro-allyl]-4-[5-[2-(2,3-dihydro-1H-pyrido[2,3-b][1,4]oxazin-6-yl)ethynyl]-3-methyl-2-pyridyl]-1,2,4-triazol-3-one ditrifluoroacetate], for which the 50% inhibitory concentration (IC50) in assay [1] (setting [6]) was 2.3 nM; in assay [2] (0.5 mM tyramine substrate), more than 100000 nM; in assay [3] (1 mM benzylamine substrate), 120000 nM; in assay [4] (1 mM putrescine substrate), 59000 nM.
